The values that follow come from patent publication US11168102B1, “Bicyclic heteroaryl compounds and uses thereof” (Revolution Medicines, Inc., priority 2019, dated 2021).

The target in experiment [1] is SOS1 catalytic domain (residues 564-1049) (Homo sapiens (Human), UniProt Q07889). As to the kind of experiment: Potency assay: binding affinity to SOS1 by Surface Plasmon Resonance (SPR). The settings on record: avi-tagged SOS1 catalytic domain immobilized on sensor chip; 1:1 equilibrium binding fit.
The subject of experiment [2] is cellular pERK in PC-9 cells (EGFR Ex19Del). Kind of experiment: Potency assay: pERK (AlphaLISA SureFire Ultra p-ERK1/2) in PC-9 cells. The experiment is classed as cell-based. The settings on record: Homo sapiens, PC-9, 1 h, PC-9 cells (EGFR Ex19Del), 1 hour incubation, AlphaLISA SureFire Ultra p-ERK1/2; read-out: SOS1 pERK IC50.
For experiment [3], the target named is SOS1 nucleotide exchange of wild-type KRAS (Homo sapiens (Human), UniProt Q07889). As to the kind of experiment: Mode of action assay: inhibition of SOS1 nucleotide exchange activity (TR-FRET). The experiment is classed as biochemical. Particulars: SOS1 catalytic domain (564-1049), avi-tagged KRAS (1-169), EDA-GTP-DY-647P1; three replicates. Background: In TR-FRET formats the signal depends on donor and acceptor labels being close together.
Chain of SOS1 nucleotide exchange of wild-type KRAS (Q07889 564-1049): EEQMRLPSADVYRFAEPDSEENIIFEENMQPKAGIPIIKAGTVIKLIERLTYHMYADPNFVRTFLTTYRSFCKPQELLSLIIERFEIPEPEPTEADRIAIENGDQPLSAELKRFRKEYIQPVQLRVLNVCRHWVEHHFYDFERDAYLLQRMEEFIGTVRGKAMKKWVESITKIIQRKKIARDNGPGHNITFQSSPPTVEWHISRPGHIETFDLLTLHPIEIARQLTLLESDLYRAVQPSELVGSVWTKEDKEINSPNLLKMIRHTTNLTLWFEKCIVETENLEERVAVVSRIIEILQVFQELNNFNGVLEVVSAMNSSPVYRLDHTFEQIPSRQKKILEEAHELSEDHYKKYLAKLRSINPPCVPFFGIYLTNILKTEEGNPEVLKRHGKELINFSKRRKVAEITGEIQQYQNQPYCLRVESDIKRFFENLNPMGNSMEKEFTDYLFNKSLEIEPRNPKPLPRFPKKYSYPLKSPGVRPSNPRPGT

Chain of SOS1 catalytic domain (residues 564-1049) (Q07889 564-1049): as above

Regarding `Cc1nc(N[C@H](C)c2cccc(C(F)F)c2F)c2cc(-c3cccnc3OCCO)c(=O)n(C)c2n1` [Example 21-11], binding in experiment [1] was put at a Kd of 0.234 µM. For the same molecule, the IC50 was determined as 0.452 µM in experiment [2] and 0.173 µM in experiment [3].
Taken in the same sequence, the figures for `Cc1nc(N[C@H](C)c2cccc(C(F)F)c2F)c2cc(-c3cccn(CCO)c3=O)c(=O)n(C)c2n1` [Example 21-12] were 0.216 µM, 0.588 µM and 0.123 µM.
With `Cc1nc(N[C@H](C)c2cccc(C(F)F)c2F)c2cc(C3=CCS(=N)(=O)CC3)c(=O)n(C)c2n1` (stereo partly drawn) [Example 23-1], the equilibrium dissociation constant (Kd) in experiment [1] is 0.0862 µM. Further, the IC50 came out at 0.076 µM in experiment [2] and 0.0783 µM in experiment [3].
Taken in the same sequence, the figures for `C[C@@H](Nc1ncnc2c1cc(C(=O)N1CC(F)C1)c(=O)n2C)c1cccc(C(F)F)c1F` [Example 26-1] were 0.285 µM, 0.994 µM and 0.162 µM.
Consider `C[C@@H](Nc1ncnc2c1cc(C(=O)N1CCOCC1)c(=O)n2C)c1cccc(C(F)F)c1F` [Example 26-2], for which binding in experiment [1] was put at a Kd of 0.118 µM. Further, the IC50 in experiment [2] stood at 0.314 µM; in experiment [3] it was 0.102 µM.
In experiment [1], `C[C@@H](Nc1ncnc2c1cc(C(=O)N1CC(C)(O)C1)c(=O)n2C)c1cccc(C(F)F)c1F` [Example 26-3] returned a Kd of 0.404 µM. Further, the IC50 is 0.659 µM in experiment [2] and 0.407 µM in experiment [3].
`C[C@@H](Nc1ncnc2c1cc(C(=O)N1CCN(C)CC1)c(=O)n2C)c1cccc(C(F)F)c1F` [Example 26-7]: in experiment [1], binding was characterised by a dissociation constant (Kd) of 0.0775 µM. The IC50 in experiment [2] amounted to 0.186 µM; in experiment [3], 0.0508 µM.
With `C[C@@H](Nc1ncnc2c1cc(C(=O)N1CCCOCC1)c(=O)n2C)c1cccc(C(F)F)c1F` [Example 26-9], the Kd in experiment [1] was 0.178 µM. Besides, the concentration for half-maximal inhibition (IC50) in experiment [2] amounted to 0.479 µM; in experiment [3], 0.122 µM.
In experiment [1], `C[C@@H](Nc1ncnc2c1cc(C(=O)N1C3CC1CN(C)C3)c(=O)n2C)c1cccc(C(F)F)c1F` [Example 26-11] yielded an equilibrium dissociation constant (Kd) of 0.0978 µM. Also, the IC50 in experiment [2] turned out to be 0.251 µM; in experiment [3] it was 0.0461 µM.
In turn, `C[C@@H](Nc1ncnc2c1cc(C(=O)N1C3CCC1COC3)c(=O)n2C)c1cccc(C(F)F)c1F` [Example 26-12] had a Kd in experiment [1] of 0.158 µM. Moreover, the concentration for half-maximal inhibition (IC50) in experiment [2] worked out at 0.861 µM; in experiment [3], 0.107 µM.
In experiment [1], `C[C@@H](Nc1ncnc2c1cc(C(=O)N(C)c1nccs1)c(=O)n2C)c1cccc(C(F)F)c1F` [Example 26-20] yielded a Kd of 1.47 µM. In addition, the IC50 in experiment [2] turned out to be 1.75 µM; in experiment [3], 0.331 µM.
In turn, `C[C@@H]1CN(C(=O)c2cc3c(N[C@H](C)c4cccc(C(F)F)c4F)ncnc3n(C)c2=O)C[C@@H](C)O1` [Example 26-21] yielded a Kd in experiment [1] of 0.114 µM. The IC50 in experiment [2] stood at 0.52 µM; in experiment [3] it was 0.0249 µM.
On to `C[C@@H]1CN(C(=O)c2cc3c(N[C@H](C)c4cccc(C(F)F)c4F)ncnc3n(C)c2=O)C[C@H](C)O1` [Example 26-22], for which the Kd in experiment [1] turned out to be 0.474 µM. Moreover, the IC50 in experiment [2] is 2.61 µM; in experiment [3], 0.113 µM.
In experiment [1], `COC[C@H]1CCCN1C(=O)c1cc2c(N[C@H](C)c3cccc(C(F)F)c3F)ncnc2n(C)c1=O` [Example 26-24] returned a Kd of 0.16 µM. Further, the values for the IC50 in experiment [2] and in experiment [3] were 0.794 µM and 0.0541 µM, respectively.
For `C[C@@H]1COC[C@H](C)N1C(=O)c1cc2c(N[C@H](C)c3cccc(C(F)F)c3F)ncnc2n(C)c1=O` [Example 26-25], in experiment [1], the Kd came out at 0.35 µM. In addition, the 50% inhibitory concentration (IC50) in experiment [2] was 0.605 µM; in experiment [3], 0.106 µM.
Regarding `C[C@@H](Nc1ncnc2c1cc(C(=O)N1CCc3ncccc31)c(=O)n2C)c1cccc(C(F)F)c1F` [Example 26-26], binding in experiment [1] was characterised by a dissociation constant (Kd) of 0.269 µM. The IC50 in experiment [2] stood at 0.228 µM; in experiment [3] it was 0.0722 µM.
In the case of `C[C@@H](Nc1ncnc2c1cc(C(=O)N1CCc3ccncc31)c(=O)n2C)c1cccc(C(F)F)c1F` [Example 26-29], the Kd in experiment [1] turned out to be 0.136 µM. Also, the IC50 came to 1.45 µM in experiment [2] and 0.0978 µM in experiment [3].
Molecule `C[C@@H](Nc1ncnc2c1cc(C(=O)N1CCn3cncc3C1)c(=O)n2C)c1cccc(C(F)F)c1F` [Example 26-30] displayed a Kd in experiment [1] of 0.26 µM. For the same molecule, the values for the concentration for half-maximal inhibition (IC50) in experiment [2] and in experiment [3] were 0.656 µM and 0.0861 µM, respectively.
As to `C[C@@H](Nc1ncnc2c1cc(C(=O)N1CCn3ccnc3C1)c(=O)n2C)c1cccc(C(F)F)c1F` [Example 26-31], in experiment [1], binding was put at a Kd of 0.322 µM. Further, the IC50 in experiment [2] was found to be 2.82 µM; in experiment [3], 0.23 µM.
The matching figures for `C[C@@H](Nc1ncnc2c1cc(C(=O)N1CCS(=O)(=O)CC1)c(=O)n2C)c1cccc(C(F)F)c1F` [Example 26-38]: 0.235 µM, 0.392 µM and 0.156 µM.
Taken in the same sequence, the figures for `C[C@@H](Nc1ncnc2c1cc(C(=O)N1CC(O)(C(F)(F)F)C1)c(=O)n2C)c1cccc(C(F)F)c1F` [Example 26-41] were 0.42 µM, 1.4 µM and 0.17 µM.
`C[C@@H](Nc1ncnc2c1cc(C(=O)N1CCN(C3COC3)CC1)c(=O)n2C)c1cccc(C(F)F)c1F` [Example 26-43] gave a Kd in experiment [1] of 0.0536 µM. In addition, the results for the IC50 in experiment [2] and in experiment [3] were 0.181 µM and 0.037 µM, respectively.
In experiment [1], `C[C@@H](Nc1ncnc2c1cc(C(=O)N1CCN(C)c3ncccc31)c(=O)n2C)c1cccc(C(F)F)c1F` [Example 26-49] showed a Kd of 0.311 µM. Moreover, the IC50 in experiment [2] is 0.959 µM; in experiment [3] it was 0.176 µM.
In turn, `C[C@@H](Nc1ncnc2c1cc(C1(O)CCS(=O)(=O)C1)c(=O)n2C)c1cccc(C(F)F)c1F` (stereo partly drawn) [Example 28-3] gave a Kd in experiment [1] of 0.128 µM. For the same molecule, the IC50 in experiment [2] came to 0.111 µM; in experiment [3], 0.0998 µM.
`C[C@@H](Nc1ncnc2c1cc(C1(O)CCC3(CC1)CS(=O)(=O)C3)c(=O)n2C)c1cccc(C(F)F)c1F` [Example 28-6]: the affinity in experiment [1], expressed as Kd, was 0.021 µM. Besides, the results for the IC50 in experiment [2] and in experiment [3] were 0.123 µM and 0.014 µM, respectively.
Regarding `C[C@@H](Nc1ncnc2c1cc(C1(F)CCN(C)CC1)c(=O)n2C)c1cccc(C(F)F)c1F` [Example 29-3], in experiment [1], the Kd turned out to be 0.0416 µM. Further, the figures for the IC50 in experiment [2] and in experiment [3] were 0.12 µM and 0.0424 µM, respectively.
Taken in the same sequence, the figures for `Cc1nc(N[C@H](C)c2cccc(C(F)F)c2F)c2cc(C3(F)CCN(C)CC3)c(=O)n(C)c2n1` [Example 29-4] were 0.0522 µM, 0.144 µM and 0.0159 µM.
The molecule `CC(=O)N1CCC(F)(c2cc3c(N[C@H](C)c4cccc(C(F)F)c4F)ncnc3n(C)c2=O)CC1` [Example 29-5] gave a Kd in experiment [1] of 0.0374 µM. Moreover, the IC50 in experiment [2] was found to be 0.0373 µM; in experiment [3] it was 0.0148 µM.
For `C[C@@H](Nc1ncnc2c1cc(C1CCS(=O)(=O)C1)c(=O)n2C)c1cccc(C(F)F)c1F` (stereo partly drawn) [Example 33-1], the Kd in experiment [1] was found to be 0.486 µM. In addition, the IC50 in experiment [2] came out at 0.0621 µM; in experiment [3] it was 0.0427 µM.

One may read the Kd as the equilibrium constant for the complex coming apart. For orientation: IC50 means the point on the concentration scale where inhibition reaches its midpoint.
